According to patent US12528786B2, “Plasma kallikrein inhibitors” (Merck Sharp & Dohme LLC, priority 2020, dated 2026):

Each compound was assayed against T1, Human plasma kallikrein (Homo sapiens, UniProt P03952) (assay: Kallikrein Assay (fluorogenic substrate hydrolysis, AFC release)). Settings: purified Human plasma kallikrein 0.5 nM; substrate Acetyl-K—P—R-AFC 100 mM; 50 mM HEPES pH 7.4.
T1 construct: yields a heavy chain (371 amino acids) and a light chain (248 amino acids); purchased Enzyme Research Laboratories
Assay type: biochemical
Procedure: The effectiveness of a compound of the present invention as an inhibitor of Kallikrein can be determined using a relevant purified serine protease, and an appropriate synthetic substrate. The rate of hydrolysis of the chromogenic or fluorogenic substrate by the relevant serine protease was measured both in the absence and presence of compounds of the present invention. Assays were conducted at room temperature or at 37° C. […] A decrease in the rate of fluorescence change in the presence of inhibitor is indicative of enzyme inhibition. Such methods are known to one skilled in the art. The results of this assay are expressed as the half-maximal inhibitory concentrations (IC50), or the inhibitory constant, Ki.
Kallikrein determinations were made in 50 mM HEPES buffer at pH 7.4 containing 150 mM NaCl, 5 mM CaCl2), and 0.1% PEG 8000 (polyethylene glycol; Fisher Scientific). Determinations were made using purified Human plasma kallikrein at a final concentration of 0.5 nM (Enzyme Research Laboratories) and the synthetic substrate, Acetyl-K—P—R-AFC (Sigma #C6608) at a concentration of […].
Activity assays were performed by diluting a stock solution of substrate at least tenfold to a final concentration ≤0.2 Km into a solution containing enzyme or enzyme equilibrated with inhibitor. Times required to achieve equilibration between enzyme and inhibitor were determined in control experiments. The reactions were performed under linear progress curve conditions and fluorescence increase measured at 405 Ex/510 Em nm. Values were converted to percent inhibition of the control reaction (after subtracting 100% Inhibition value). IC50 was determined by inflection point from a four parameter logistic curve fit. Ki was calculated using the Cheng Prusoff equation, Ki=IC50/(1+([S]/Km)).

T1 sequence (P03952 391-638 limits assumed): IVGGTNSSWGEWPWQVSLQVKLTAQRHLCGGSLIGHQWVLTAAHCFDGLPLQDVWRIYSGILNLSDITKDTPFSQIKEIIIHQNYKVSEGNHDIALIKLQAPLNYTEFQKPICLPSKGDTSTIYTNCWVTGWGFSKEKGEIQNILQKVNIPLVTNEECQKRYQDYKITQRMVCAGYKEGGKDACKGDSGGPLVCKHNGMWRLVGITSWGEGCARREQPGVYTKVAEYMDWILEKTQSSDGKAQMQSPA
T1 sequence (P03952 20-390 partner limits assumed): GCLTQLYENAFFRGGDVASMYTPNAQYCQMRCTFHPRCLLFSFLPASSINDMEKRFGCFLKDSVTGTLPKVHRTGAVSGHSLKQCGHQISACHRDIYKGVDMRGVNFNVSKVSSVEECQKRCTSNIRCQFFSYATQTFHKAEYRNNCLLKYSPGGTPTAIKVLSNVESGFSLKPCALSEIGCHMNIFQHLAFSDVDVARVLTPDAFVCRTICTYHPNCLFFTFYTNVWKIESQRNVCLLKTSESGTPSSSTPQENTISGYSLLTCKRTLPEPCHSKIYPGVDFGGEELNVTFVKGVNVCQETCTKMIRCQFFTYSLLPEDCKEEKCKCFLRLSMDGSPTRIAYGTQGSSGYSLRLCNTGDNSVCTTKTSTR

Structure (SMILES) | IC50 [nM]
CC(c1cnc(N2C[C@H]3C[C@H]3C2=O)c(F)c1)n1cc(C(=O)N[C@H]2C[C@@H](c3cc(Cl)ccc3C#N)C2)cn1 (single isomer, unassigned) [Example 21, N-((cis)-3-(5-chloro-2-cyanophenyl)cyclobutyl)-1-((R or S)-1-(5-fluoro-6-((1R,5S)-2-oxo-3-azabicyclo[3.1.0]hexan-3-yl)pyridin-3-yl)ethyl)-1H-pyrazole-4-carboxamide] | 1.1
CC(c1cnc(N2C[C@H]3C[C@H]3C2=O)c(F)c1)n1cc(C(=O)N[C@H]2C[C@@H](c3cc(Cl)ccc3C#N)C2)cn1 (single isomer, unassigned) [Example 22, N-((cis)-3-(5-chloro-2-cyanophenyl)cyclobutyl)-1-((S or R)-1-(5-fluoro-6-((1R,5S)-2-oxo-3-azabicyclo[3.1.0]hexan-3-yl)pyridin-3-yl)ethyl)-1H-pyrazole-4-carboxamide] | 1.5
COc1cc(C(C)n2cc(C(=O)N[C@H]3C[C@@H](c4cc(C)ccc4C#N)C3)cn2)cnc1N1C[C@H]2C[C@H]2C1=O (single isomer, unassigned) [Example 23, N-((cis)-3-(2-cyano-5-methylphenyl)cyclobutyl)-1-((R or S)-1-(5-methoxy-6-((1R,5S)-2-oxo-3-azabicyclo[3.1.0]hexan-3-yl)pyridin-3-yl)ethyl)-1H-pyrazole-4-carboxamide] | 3.9
Cc1cc(N2C[C@H]3C[C@H]3C2=O)cnc1C(C)n1cc(C(=O)N[C@H]2C[C@@H](c3cc(Cl)ccc3C#N)C2)cn1 (single isomer, unassigned) [Example 24, N-((cis)-3-(5-chloro-2-cyanophenyl)cyclobutyl)-1-((R or S)-1-(3-methyl-5-((1R,5S)-2-oxo-3-azabicyclo[3.1.0]hexan-3-yl)pyridin-2-yl)ethyl)-1H-pyrazole-4-carboxamide] | 5.1
Cc1cc(N2C[C@H]3C[C@H]3C2=O)cnc1C(C)n1cc(C(=O)N[C@H]2C[C@@H](c3cc(Cl)ccc3C#N)C2)cn1 (single isomer, unassigned) [Example 25, N-((cis)-3-(5-chloro-2-cyanophenyl)cyclobutyl)-1-((S or R)-1-(3-methyl-5-((1R,5S)-2-oxo-3-azabicyclo[3.1.0]hexan-3-yl)pyridin-2-yl)ethyl)-1H-pyrazole-4-carboxamide] | 25.3
CC(c1ncc(N2C[C@H]3C[C@H]3C2=O)cc1F)n1cc(C(=O)N[C@H]2C[C@@H](c3cc(Cl)ccc3C#N)C2)cn1 (single isomer, unassigned) [Example 26, N-((cis)-3-(5-chloro-2-cyanophenyl)cyclobutyl)-1-((R or S)-1-(3-fluoro-5-((1R,5S)-2-oxo-3-azabicyclo[3.1.0]hexan-3-yl)pyridin-2-yl)ethyl)-1H-pyrazole-4-carboxamide] | 3.7
CC(c1ncc(N2C[C@H]3C[C@H]3C2=O)cc1F)n1cc(C(=O)N[C@H]2C[C@@H](c3cc(Cl)ccc3C#N)C2)cn1 (single isomer, unassigned) [Example 27, N-((cis)-3-(5-chloro-2-cyanophenyl)cyclobutyl)-1-((S or R)-1-(3-fluoro-5-((1R,5S)-2-oxo-3-azabicyclo[3.1.0]hexan-3-yl)pyridin-2-yl)ethyl)-1H-pyrazole-4-carboxamide] | 18.6
Cc1c(C(C)n2cc(C(=O)N[C@H]3C[C@@H](c4cc(Cl)ccc4C#N)C3)cn2)cnc(N2C[C@H]3C[C@H]3C2=O)c1F (single isomer, unassigned) [Example 28, N-((cis)-3-(5-chloro-2-cyanophenyl)cyclobutyl)-1-((R or S)-1-(5-fluoro-4-methyl-6-((1R,5S)-2-oxo-3-azabicyclo[3.1.0]hexan-3-yl)pyridin-3-yl)ethyl)-1H-pyrazole-4-carboxamide] | 0.2
Cc1c(C(C)n2cc(C(=O)N[C@H]3C[C@@H](c4cc(Cl)ccc4C#N)C3)cn2)cnc(N2C[C@H]3C[C@H]3C2=O)c1F (single isomer, unassigned) [Example 29, N-((cis)-3-(5-chloro-2-cyanophenyl)cyclobutyl)-1-((S or R)-1-(5-fluoro-4-methyl-6-((1R,5S)-2-oxo-3-azabicyclo[3.1.0]hexan-3-yl)pyridin-3-yl)ethyl)-1H-pyrazole-4-carboxamide] | 1.6
Cc1cc(C(C)n2cc(C(=O)N[C@H]3C[C@@H](c4cc(Cl)ccc4C#N)C3)cn2)nnc1N1C[C@H]2C[C@H]2C1=O (single isomer, unassigned) [Example 30, N-((cis)-3-(5-chloro-2-cyanophenyl)cyclobutyl)-1-((R or S)-1-(5-methyl-6-((1R,5S)-2-oxo-3-azabicyclo[3.1.0]hexan-3-yl)pyridazin-3-yl)ethyl)-1H-pyrazole-4-carboxamide] | 2.4
Cc1cc(C(C)n2cc(C(=O)N[C@H]3C[C@@H](c4cc(Cl)ccc4C#N)C3)cn2)nnc1N1C[C@H]2C[C@H]2C1=O (single isomer, unassigned) [Example 31, N-((cis)-3-(5-chloro-2-cyanophenyl)cyclobutyl)-1-((S or R)-1-(5-methyl-6-((1R,5S)-2-oxo-3-azabicyclo[3.1.0]hexan-3-yl)pyridazin-3-yl)ethyl)-1H-pyrazole-4-carboxamide] | 7.3
Cc1ccnc([C@H]2C[C@@H](NC(=O)c3cnn(C(C)c4cnc(N5C[C@H]6C[C@H]6C5=O)cc4C)c3)C2)c1 (single isomer, unassigned) [Example 32, 1-((R or S)-1-(4-methyl-6-((1R,5S)-2-oxo-3-azabicyclo[3.1.0]hexan-3-yl)pyridin-3-yl)ethyl)-N-((cis)-3-(4-methylpyridin-2-yl)cyclobutyl)-1H-pyrazole-4-carboxamide] | 11.1
Cc1ccnc([C@H]2C[C@@H](NC(=O)c3cnn(C(C)c4cnc(N5C[C@H]6C[C@H]6C5=O)cc4C)c3)C2)c1 (single isomer, unassigned) [Example 33, 1-((S or R)-1-(4-methyl-6-((1R,5S)-2-oxo-3-azabicyclo[3.1.0]hexan-3-yl)pyridin-3-yl)ethyl)-N-((cis)-3-(4-methylpyridin-2-yl)cyclobutyl)-1H-pyrazole-4-carboxamide] | 84.4
Cc1cc(N2C[C@H]3C[C@H]3C2=O)ncc1C(C)n1cc(C(=O)N[C@H]2C[C@@H](c3cc(F)ccc3C#N)C2)cn1 (single isomer, unassigned) [Example 34, N-((cis)-3-(2-cyano-5-fluorophenyl)cyclobutyl)-1-((R or S)-1-(4-methyl-6-((1R,5S)-2-oxo-3-azabicyclo[3.1.0]hexan-3-yl)pyridin-3-yl)ethyl)-1H-pyrazole-4-carboxamide] | 5.1
Cc1cc(N2C[C@H]3C[C@H]3C2=O)ncc1C(C)n1cc(C(=O)N[C@H]2C[C@@H](c3cc(F)ccc3C#N)C2)cn1 (single isomer, unassigned) [Example 35, N-((cis)-3-(2-cyano-5-fluorophenyl)cyclobutyl)-1-((S or R)-1-(4-methyl-6-((1R,5S)-2-oxo-3-azabicyclo[3.1.0]hexan-3-yl)pyridin-3-yl)ethyl)-1H-pyrazole-4-carboxamide] | 102
Cc1ccc(C#N)c([C@H]2C[C@@H](NC(=O)c3cnn(C(C)c4cnc(N5C[C@H]6C[C@H]6C5=O)cc4C)c3)C2)c1 (single isomer, unassigned) [Example 36, N-((cis)-3-(2-cyano-5-methylphenyl)cyclobutyl)-1-((R or S)-1-(4-methyl-6-((1R,5S)-2-oxo-3-azabicyclo[3.1.0]hexan-3-yl)pyridin-3-yl)ethyl)-1H-pyrazole-4-carboxamide] | 1.1
Cc1c(C(C)n2cc(C(=O)N[C@H]3C[C@@H](c4cc(Cl)ccc4C#N)C3)cn2)cnc(N2C[C@H]3C[C@H]3C2=O)c1C (single isomer, unassigned) [Example 39, N-((cis)-3-(5-chloro-2-cyanophenyl)cyclobutyl)-1-((R or S)-1-(4,5-dimethyl-6-((1R,5S)-2-oxo-3-azabicyclo[3.1.0]hexan-3-yl)pyridin-3-yl)ethyl)-1H-pyrazole-4-carboxamide] | 0.3
Cc1c(C(C)n2cc(C(=O)N[C@H]3C[C@@H](c4cc(Cl)ccc4C#N)C3)cn2)cnc(N2C[C@H]3C[C@H]3C2=O)c1C (single isomer, unassigned) [Example 40, N-((cis)-3-(5-chloro-2-cyanophenyl)cyclobutyl)-1-((S or R)-1-(4,5-dimethyl-6-((1R,5S)-2-oxo-3-azabicyclo[3.1.0]hexan-3-yl)pyridin-3-yl)ethyl)-1H-pyrazole-4-carboxamide] | 0.7
Cc1c(C(C)n2cc(C(=O)N[C@H]3C[C@@H](c4cc(Cl)ccc4C#N)C3)cn2)nnc(N2C[C@H]3C[C@H]3C2=O)c1C (single isomer, unassigned) [Example 41, N-((cis)-3-(5-chloro-2-cyanophenyl)cyclobutyl)-1-((R or S)-1-(4,5-dimethyl-6-((1R,5S)-2-oxo-3-azabicyclo[3.1.0]hexan-3-yl)pyridazin-3-yl)ethyl)-1H-pyrazole-4-carboxamide] | 15.8
